Measurements reported in ChEMBL document CHEMBL3259635, “Recent developments of metal N-heterocyclic carbenes as anticancer agents” (Eur J Med Chem, 2014).
pEC50, pIC50: −log10 of the molar value.

Assays:
Type in all cases: functional, cell-based
[1] = Cytotoxicity against CCO cells; settings: Ictalurus punctatus
[2] = Cytotoxicity against rat PC12 cells; settings: PC-12
[3] = Cytotoxicity against gastric cancer cells (unknown origin); settings: Cancer cell lines, Stomach
[4] = Cytotoxicity against breast cancer cells (unknown origin); settings: Cancer cell lines
[5] = Cytotoxicity against epithelial cancer cells (unknown origin); settings: Cancer cell lines
[6] = Cytotoxicity against rat PC12 cells after 24 hrs; settings: PC-12, 24 h

CCCn1cc[n+](C)c1 showed a pEC50 [1] of less than 5.00.
Work on CCCCCCCCn1cc[n+](C)c1.O=S(=O)([N-]S(=O)(=O)C(F)(F)F)C(F)(F)F yielded a pEC50 [1] greater than 7.00.
In the case of CCCCn1cc[n+](C)c1, the pEC50 [2] was less than 2.04.
Compound CC(=O)Oc1ccc(Cn2cc[n+](-c3c(C)cc(C)cc3C)c2)cc1 has a pIC50 [3] of 5.00 and a pIC50 [4] of 4.70.
Work on CCCCCCCCCCCCn1cc[n+](C)c1 yielded a pEC50 [2] of 4.62.
c1c[n+](C23CC4CC(CC(C4)C2)C3)cn1C12CC3CC(CC(C3)C1)C2 showed a pIC50 [5] of 6.00.
For c1ccc(Cc2cn(Cc3ccccc3)c[n+]2Cc2ccccc2)cc1, the pIC50 [5] was 4.70.
Work on CC(=O)Oc1ccc(Cn2cc[n+](Cc3ccccc3)c2C)cc1 yielded a pIC50 [5] of 4.55.
Compound Cc1ccc(C[n+]2ccn(Cc3ccccc3)c2)cc1 has a pIC50 [5] of 4.52.
Compound Cc1n(Cc2ccccc2)cc[n+]1Cc1ccccc1C(F)(F)F has a pIC50 [5] of 4.46.
c1ccc(CCn2cc[n+](CCc3ccccc3)c2)cc1 showed a pIC50 [5] of 4.70.
In the case of Cc1n(Cc2ccccc2)cc[n+]1Cc1ccccc1, the pIC50 [3] was 4.46 and the pIC50 [4] was 4.46.
For CCCCCCCn1cc[n+](C)c1.O=S(=O)([N-]S(=O)(=O)C(F)(F)F)C(F)(F)F, the pEC50 [1] was greater than 7.00.
Work on CCCCCCCC[n+]1ccn(C)c1 yielded a pEC50 [6] of 3.25.
